Biological target: T1, human IDO1 (Homo sapiens, UniProt P14902)
Assay: Human IDO-1 inhibitory activity in HEK cells (human IDO1/HEK293 cellular assay)
Format: cell-based
Parameters: expressed in transfected cells
Conditions: HEK human IDO-1 cellular assay; 500 nM reference standard = 100% inhibition, DMSO = 0%
Procedure: They were cultured in medium (DMEM with 10% FBS) containing 1 mg/ml G418 for two weeks.
The human IDO1/HEK293 cells were seeded at 10,000 cells per 50 μL per well with RPMI/phenol red free media contains 10% FBS in a 384-well black wall clear bottom tissue culture plate (Matrix Technologies LLC) 100 nL of certain concentration of compound was then added to each well using ECHO liquid handling systems. The cells were incubated for 20 hours in 37° C. incubator with 5% CO2.
The compound treatments were stopped by adding trichloroacetic acid (Sigma-Aldrich) to a final concentration at 0.2%. The cell plate was further incubated at 50° C. for 30 minute. The equal volume supernatant (20 μL) and 0.2% (w/v) Ehrlich reagent (4-dimethylaminobenzaldehyde, Sigma-Aldrich) in glacial acetic acid were mixed in a new clear bottom 384-well plate. This plate was then incubated at room temperature for 30 minute. The absorbance at 490 nm was measured on Envision plate reader.

T1 sequence (P14902 whole entry): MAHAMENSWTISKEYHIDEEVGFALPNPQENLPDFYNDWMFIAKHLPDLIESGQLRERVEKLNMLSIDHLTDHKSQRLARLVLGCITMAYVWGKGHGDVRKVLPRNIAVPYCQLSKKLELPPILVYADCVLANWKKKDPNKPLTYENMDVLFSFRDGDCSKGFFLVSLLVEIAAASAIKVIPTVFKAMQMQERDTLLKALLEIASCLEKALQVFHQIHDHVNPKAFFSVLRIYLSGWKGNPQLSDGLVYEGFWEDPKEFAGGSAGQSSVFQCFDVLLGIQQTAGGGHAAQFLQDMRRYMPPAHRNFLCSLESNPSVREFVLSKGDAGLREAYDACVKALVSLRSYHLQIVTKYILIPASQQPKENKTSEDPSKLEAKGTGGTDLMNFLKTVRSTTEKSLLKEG

IC50 [nM] | Molecule
> 50 | CCC(CC(=O)O)c1ccc(N(CC)C2CCOCC2)c(NC(=O)Nc2cnc(C)nc2)c1 (single isomer, unassigned) [Example 488 Enantiomer 2, 3-(4-(Ethyl(tetrahydro-2H-pyran-4-yl)amino)-3-(3-(2-methylpyrimidin-5-yl)ureido)phenyl)pentanoic Acid]
< 50 | Cc1ccc(CC(=O)Nc2cc(C(C)CC(=O)O)ccc2N(CC(C)C)C2CCOCC2)cc1 (single isomer, unassigned) [Example 967, 3-(4-(Isobutyl(tetrahydro-2H-pyran-4-yl)amino)-3-(2-(p-tolyl)acetamido)phenyl)butanoic Acid]
> 50 | CCC(CC(=O)O)c1ccc(N2CCC[C@H]2C(C)(C)F)c(NC(=O)Nc2ccc(OC)cc2F)c1 (single isomer, unassigned) [Example 793]
< 5 | CCC(CC(=O)O)c1cc(F)c(N(CC(C)C)CC(C)C)c(NC(=O)Cc2ccc(Cl)cc2F)c1 (single isomer, unassigned) [Example 1092 E1]
> 50 | CCC(CC(=O)O)c1ccc(N(CC(C)C)C(C)C)c(Nc2ccc3nc(C)sc3c2)c1 (single isomer, unassigned) [Example 730, 3-(4-(isobutyl(isopropyl)amino)-3-((2-methylbenzo[d]thiazol-6-yl)amino)phenyl)pentanoic acid]

Biological target: T1, human IDO1
Assay: Human IDO-1 inhibitory activity in Hela cells (interferon-gamma stimulated)
Format: cell-based
Parameters: endogenous in cells; host or cells: HeLa cells stimulated with interferon-gamma
Conditions: 18 hours, unstimulated wells = 100% inhibition
Procedure: HeLa cells were seeded at 20,000 cells per 30 μL per well with RPMI/phenol red free media containing 10% FBS in a 384-well tissue culture plate (black with clear bottoms). 50 nL of compound was added to cells and incubated at 37° C. for one hour. 20 μL of the recombinant human Interferon-gamma (R&D System, Cat. #285-IF, at final concentration of 10 ng/ml) or recombinant murine Interferon-gamma (PEPROTECH® Inc., Cat. #315-05, final concentration of 5 ng/ml) was added to activate IDO signaling. The cells were incubated for 18 hours in 37° C. incubator with 5% CO2.
Compound treatment was stopped by adding 5 μl trichloroacetic acid to a final concentration of 3%. Subsequently, the cell plate was further incubated at 50° C. for 30 minute. An equal volume supernatant (20 μL) and 2% (w/v) Ehrlich reagent (4-dimethylaminobenzaldehyde) in glacial acetic acid were mixed in a new clear bottom 384-well plate. This plate was incubated at room temperature for 30 minutes. Absorbance at 490 nm was measured on Envision plate reader.
Compound IC50 values were calculated using counts from unstimulated (no INF-gamma treatment) wells as 100% inhibition. INF-gamma treatment without compound treatment as 0% inhibition.

IC50 [nM] | Molecule
< 50 | CCC(CC(=O)O)c1ccc(N2CCOC(C)(C)C2)c(Nc2ccc(Cl)cc2)c1 (single isomer, unassigned) [Example 1319 E2, 3-(3-((4-Chlorophenyl)amino)-4-(2,2-dimethylmorpholino)phenyl)pentanoic Acid]
< 5 | CCN(c1ccc([C@H](COC)CC(=O)O)cc1Nc1ccc2c(c1)OC(F)(F)O2)C1CCOCC1 (single isomer, unassigned) [Example 415]
< 50 | CCCN(c1ccc(C(COC)CC(=O)O)cc1Nc1ccc(C#N)cc1)C1CCS(=O)(=O)CC1 (single isomer, unassigned) [Example 182 Enantiomer 1, 3-(3-((4-Cyanophenyl)amino)-4-((1,1-dioxidotetrahydro-2H-thiopyran-4-yl)(propyl)amino)phenyl)-4-methoxybutanoic Acid]
> 50 | (R)-3-(4-((1,1-dioxidotetrahydro- 2H-thiopyran-4-yl)(ethyl)amino)- 3-((2-methoxypyrimidin-5- yl)amino)phenyl)-4- isopropoxybutanoic acid [Example 332]
< 50 | CCN(c1ccc([C@H](COC)CC(=O)O)cc1Nc1ccc(C#N)cc1C)C1CCOCC1 (single isomer, unassigned) [Example 404]
< 50 | CCOc1cc(Nc2cc([C@H](COC)CC(=O)O)ccc2N(CC)C2CCOCC2)ccc1C#N (single isomer, unassigned) [Example 407]
> 50 | COCC(CC(=O)O)c1ccc(N2C[C@@H](C)O[C@@H](C)C2)c(Nc2ccc(Cl)cc2)c1 (single isomer, unassigned) [Example 604]
< 50 | CCN(c1ccc([C@H](COC)CC(=O)O)cc1Nc1ccc(F)cc1F)C1CCOCC1 (single isomer, unassigned) [Example 402]
> 50 | COCC(CC(=O)O)c1ccc(N2CCOC(C)C2)c(NC(=O)Nc2ccc(Cl)cc2F)c1 (single isomer, unassigned) [Example 1314 D2, 3-(3-(3-(4-Chloro-2-fluorophenyl)ureido)-4-(2-methylmorpholino)phenyl)-4-methoxybutanoic Acid]
> 50 | COCC(CC(=O)O)c1ccc(N2C[C@@H](C)O[C@@H](C)C2)c(NC(=O)Nc2ccc(Cl)cc2F)c1 (single isomer, unassigned) [Example 607]
> 50 | (R)-3-(4-((1,1-dioxidotetrahydro- 2H-thiopyran-4-yl)(ethyl)amino)- 3-((2-ethoxypyrimidin-5- yl)amino)phenyl)-4- isopropoxybutanoic acid [Example 333]
< 5 | CCN(c1ccc([C@H](COC)CC(=O)O)cc1Nc1ccc(Cl)cc1F)C1CCOCC1 (single isomer, unassigned) [Example 399]
> 50 | CCC(CC(=O)O)c1ccc(N2CCN(C(=O)OC)CC2)c(Nc2ccc(C#N)cc2)c1 (single isomer, unassigned) [Example 668 Enantiomer 2, 3-(3-((4-Cyanophenyl)amino)-4-(4-(methoxycarbonyl)piperazin-1-yl)phenyl)pentanoic Acid]
< 50 | CCN(c1ccc(C(COC)CC(=O)O)cc1Nc1ccc(C#N)cc1)C1CCCOC1 (single isomer, unassigned) [264 E1]
> 50 | CCC(CC(=O)O)c1ccc(N2CCNCC2)c(Nc2ccc(C#N)cc2)c1 (single isomer, unassigned) [Example 671 Enantiomer 2, 3-(3-((4-Cyanophenyl)amino)-4-(piperazin-1-yl)phenyl) pentanoic Acid]
> 50 | 3-(4-((1,1-dioxido- tetrahydro-2H- thiopyran-4-yl) (ethyl)amino)-3- ((4-fluorophenyl) amino)phenyl)-4- isopropoxy- butanoic acid [Example 341]

IC50 [nM] | Molecule
< 50 | CCN(c1ccc([C@H](COC)CC(=O)O)cc1Nc1ccc2nc(C)sc2c1)C1CCOCC1 (single isomer, unassigned) [Example 414]
> 50 | CCN(c1ccc([C@H](COC)CC(=O)O)cc1Nc1cccc(OC(F)(F)C(F)F)c1)C1CCOCC1 (single isomer, unassigned) [Example 397]
< 5 | (R)-3-(4-(ethyl(tetrahydro-2H- pyran-4-yl)amino)-3-((3- (1,1,2,2-tetrafluoroethoxy) phenyl)amino)phenyl)-4- methoxybutanoic acid [Example 398]
> 50 | (S)-3-(4-(ethyl(tetrahydro- 2H-pyran-4-yl)amino)-3-((2- (tetrahydro-2H-pyran-4- yl)pyrimidin-5-yl)amino) phenyl)-4-methoxybutanoic acid [Example 366]
< 5 | CCN(c1cc(F)c(C(COC)CC(=O)O)cc1Nc1ccc(C#N)cc1F)C1CCOCC1 (single isomer, unassigned) [Example 854, 3-(5-((4-cyano-2-fluorophenyl)amino)-4-(ethyl(tetrahydro-2H-pyran-4-yl)amino)-2-fluorophenyl)-4-methoxybutanoic acid]
< 50 | CCN(c1ccc(C(COC(C)C)CC(=O)O)cc1Nc1ccc(F)cc1)C1CCS(=O)(=O)CC1 (stereo not drawn) [Example 340]
> 50 | (S)-3-(4-((1,1-dioxidotetrahydro- 2H-thiopyran-4-yl)(ethyl)amino)- 3-((2-ethoxypyrimidin-5-yl)amino) phenyl)-4-isopropoxybutanoic acid [Example 328]
< 5 | CCN(c1ccc([C@H](COC)CC(=O)O)cc1Nc1ccc(C#N)c(F)c1)C1CCOCC1 (single isomer, unassigned) [Example 390]
> 50 | (S)-3-(4-((1,1-dioxidotetrahydro- 2H-thiopyran-4-yl)(ethyl)amino)- 3-((2-methoxypyrimidin-5- yl)amino)phenyl)-4- isopropoxybutanoic acid [Example 327]
< 5 | CCc1ccc(Nc2cc([C@H](COC)CC(=O)O)ccc2N(CC)C2CCOCC2)cc1 (single isomer, unassigned) [Example 411]
> 50 | CCN(c1ccc([C@H](COC)CC(=O)O)cc1Nc1cccc(C#N)c1)C1CCOCC1 (single isomer, unassigned) [Example 405]
< 5 | CCN(c1ccc([C@H](COC)CC(=O)O)cc1Nc1ccc(C#N)cc1F)C1CCOCC1 (single isomer, unassigned) [Example 392]
> 50 | CCC(CC(=O)O)c1ccc(N2CCOC(C)(C)C2)c(NC(=O)Nc2ccc(Cl)cc2F)c1 (single isomer, unassigned) [Example 1322 E2, 3-(3-(3-(4-Chloro-2-fluorophenyl)ureido)-4-(2,2-dimethylmorpholino)phenyl)pentanoic Acid]
> 50 | CCCN(c1ccc(C(COC)CC(=O)O)cc1Nc1ccc(C#N)cc1)C1CCS(=O)(=O)CC1 (single isomer, unassigned) [Example 182 Enantiomer 2, 3-(3-((4-Cyanophenyl)amino)-4-((1,1-dioxidotetrahydro-2H-thiopyran-4-yl)(propyl)amino)phenyl)-4-methoxybutanoic Acid]
> 50 | COCC(CC(=O)O)c1ccc(N2C[C@@H](C)O[C@@H](C)C2)c(NC(=O)Nc2ccc(C#N)cc2)c1 (single isomer, unassigned) [Example 605 Diastereomer 2]
